Read-outs that look alike come from different tables or passages of the source.
Legend:
[1] = system: X. fastidiosa subsp. fastidiosa (IVIA strain 5387.2); type: cell-based, Xylella fastidiosa subsp. fastidiosa; details: ampicillin 100 mg/l
[2] = system: Xylella fastidiosa subsp. multiplex IVIA 5901.2; type: cell-based; details: for mean survival: ampicillin 100 mg/L
[3] = system: Xylella fastidiosa subsp. fastidiosa strain 5387.2 in almond plants of the Avijor variety; type: in vivo; details: ampicillin 100 mg/L
[4] = system: Xylella fastidiosa subsp. fastidiosa IVIA 5387.2; type: cell-based; details: for mean survival: streptomycin 100 mg/L
[5] = system: Erwinia amylovora EPS 101; type: cell-based
[6] = system: Xylella fastidiosa subsp. pauca DD1 CODiRo; type: cell-based; details: streptomycin 100 mg/L
[7] = system: Xanthomonas fragariae 349-9^a; type: cell-based
[8] = system: Ralstonia solanacearum CECT 125; type: cell-based; details: streptomycin 100 mg/L
[9] = system: Xanthomonas axonopodis pv. vesicatoria IVIA 2133.2; type: cell-based; details: 2 h
[10] = system: EPS101 strain of E. amylovora in pear plants of the Conference variety; design: species or system Erwinia amylovora; details: in vivo
[11] = system: 11 phytopathogenic strains; type: cell-based
[12] = system: Pseudomonas syringae pv. syringae EPS 94; type: cell-based
[13] = system: Xylella fastidiosa subsp. multiplex IVIA 5901.2; type: cell-based; details: streptomycin 100 mg/L
[14] = system: Xanthomonas axonopodis pv. vesicatoria IVIA 2133.2; type: cell-based
[15] = system: X. fastidiosa subsp. pauca strain CoDiRO (DD1); type: cell-based, Xylella fastidiosa subsp. pauca; details: streptomycin 100 mg/L
[16] = system: Erwinia amylovora EPS 101; type: cell-based; remark: listed apart in the source
[17] = system: Xylella fastidiosa subsp. fastidiosa IVIA 5387.2; type: cell-based; details: streptomycin 100 mg/L
[18] = system: Xanthomonas arboricola pv. pruni CFBP 5563; type: cell-based
[19] = system: Xanthomonas arboricola pv. pruni CFBP 5563; type: cell-based; remark: listed apart in the source
[20] = 31 days after application, qPCR of sap

`CC1(C)S[C@@H]2[C@H](NC(=O)[C@H](N)c3ccccc3)C(=O)N2[C@H]1C(=O)O` [ampicillin] was tested, and the median survival ([1]; 30 minutes) was 100%, the survival ([1]; 2 hours) was 20.6% and the mean survival ([2]; 30 minutes) was 2%. For the same molecule, the mean survival ([2]; 120 minutes) was 4.4%, the “plants with decrease of viable bacteria at the inoculation point” value ([3]; 18 h after application, 4 plants) was 25 % of the plants and the “plants with upward and downward movement of Xylella fastidiosa” value ([3]; 31 days after application) was 75 % of the plants. The “plants with Xylella fastidiosa not detected in A1” value [3, 20] was 25 % of plants, the “plants with Xylella fastidiosa not detected in A2” value [3, 20] was 25 % of plants and the “plants with Xylella fastidiosa not detected in B” value [3, 20] was 25 % of plants. For the same molecule, the “severity of infections with respect to untreated control” value ([3]; curative trunk microinjection, product 20 and 40 μl/ml, 31 days after application) was “significantly reduced”, the “lower progression of Xylella fastidiosa by the vascular system (qPCR)” value ([3]; product 20 μl/ml, 14 days after application) was “not observed” and the type of effect ([4]; ampicillin 100 mg/L) was “bacteriostatic effect”. For the same molecule, the survival ([4]; ampicillin 100 mg/L, 30 and 120 minutes, direct suspension or dilution −1) was “no survival”.

In the case of `[H]/N=C(/N)N[C@H]1[C@H](O)[C@@H](O)[C@H](O[C@@H]2O[C@@H](C)[C@](O)(C=O)[C@H]2O[C@@H]2O[C@@H](CO)[C@H](O)[C@@H](O)[C@@H]2NC)[C@@H](N/C(N)=N\[H])[C@@H]1O` [streptomycin], the bacterial growth [5] is reported as “−”, the “survival compared to the untreated control” value ([2]; streptomycin 100 mg/L) is reported as “no significant differences” and the bacterial growth [6] is reported as “−”. The bacterial growth [7] was “−”, the bacterial growth [8] was “−” and the survival [9] was 3.06. The “severity of infections with respect to untreated control” value [10] was “significantly reduced”, the “growth of all pathogens tested” value [11] was “inhibited the growth” and the bacterial growth [12] was “−”. The bacterial growth [13] was “−”, the bacterial growth [14] was “−” and the mean survival ([4]; 30 minutes) was 4.4%. For the same molecule, the mean survival ([4]; 120 minutes) was 20%, the survival ([15]; 30 minutes) was 89.8% and the survival ([15]; 120 minutes) was 61.7%. For the same molecule, the survival [16] was “significant reduction”, the bacterial growth [17] was “−” and the mean survival [18] was 0.01%. The survival ([18]; 2 hours) was “no survival” and the bacterial growth [19] was “−”.
